# Experimental data: US20010046987A1, “Oxazolidinones having a sulfoximine functionality” (priority 1999, published 2001)
# How the values were obtained:
# Staphylococcus aureus = test: MIC by agar dilution, SAUR 9213; type: cell-based; details: for MIC: Staphylococcus aureus, strain SAUR 9213, read-out: Antibacterial Activity Minimum Inhibitory Concentration SAUR 9213; for Antibacterial Activity Minimum Inhibitory Concentration SAUR 9213: strain SAUR 9213
# Description: (§1) The in vitro activity of compounds of this invention can be assessed by standard testing procedures such as the determination of minimum inhibitory concentration (MIC) by agar dilution as described in “Approved Standard.
# H. influenzae = test: MIC by agar dilution, HINF 30063; type: cell-based; details: for MIC: Haemophilus influenzae, strain HINF 30063, read-out: Antibacterial Activity Minimum Inhibitory Concentration HINF 30063; for Antibacterial Activity Minimum Inhibitory Concentration HINF 30063: strain HINF 30063
# Description: as §1
# Moraxella catarrhalis = test: MIC by agar dilution, MCAT 30607; type: cell-based; details: for MIC: Moraxella catarrhalis, strain MCAT 30607, read-out: Antibacterial Activity Minimum Inhibitory Concentration MCAT 30607; for Antibacterial Activity Minimum Inhibitory Concentration MCAT 30607: strain MCAT 30607
# Description: as §1
# Streptococcus pyogenes = test: MIC by agar dilution, SPYO 152; type: cell-based; details: for MIC: Streptococcus pyogenes, strain SPYO 152, read-out: Antibacterial Activity Minimum Inhibitory Concentration SPYO 152; for Antibacterial Activity Minimum Inhibitory Concentration SPYO 152: strain SPYO 152
# Description: as §1
# Enterococcus faecalis = test: MIC by agar dilution, EFAE 9217; type: cell-based; details: for MIC: Enterococcus faecalis, strain EFAE 9217, read-out: Antibacterial Activity Minimum Inhibitory Concentration EFAE 9217; for Antibacterial Activity Minimum Inhibitory Concentration EFAE 9217: strain EFAE 9217
# Description: as §1
# Streptococcus pneumoniae = test: MIC by agar dilution, SPNE 9912; type: cell-based; details: for MIC: Streptococcus pneumoniae, strain SPNE 9912, read-out: Antibacterial Activity Minimum Inhibitory Concentration SPNE 9912; for Antibacterial Activity Minimum Inhibitory Concentration SPNE 9912: strain SPNE 9912
# Description: as §1
# [1] = test system: Staphylococcus epidermidis; test: MIC by agar dilution, SEPI 30593; type: cell-based; details: for MIC: Staphylococcus epidermidis, strain SEPI 30593, read-out: Antibacterial Activity Minimum Inhibitory Concentration SEPI 30593; for Antibacterial Activity Minimum Inhibitory Concentration SEPI 30593: strain SEPI 30593
# Description: as §1
# Enterococcus faecium = test: MIC by agar dilution, EFAE 12712; type: cell-based; details: for MIC: Enterococcus faecium, strain EFAE 12712, read-out: Antibacterial Activity Minimum Inhibitory Concentration EFAE 12712; for Antibacterial Activity Minimum Inhibitory Concentration EFAE 12712: strain EFAE 12712
# Description: as §1
SMILES,MIC (Staphylococcus aureus),melting point,MIC (H. influenzae),MIC (Moraxella catarrhalis),MIC (Streptococcus pyogenes),MIC (Enterococcus faecalis),MIC (Streptococcus pneumoniae),MIC [1],MIC (Enterococcus faecium),Antibacterial Activity Minimum Inhibitory Concentration SAUR 9213 (Staphylococcus aureus),Antibacterial Activity Minimum Inhibitory Concentration HINF 30063 (H. influenzae),Antibacterial Activity Minimum Inhibitory Concentration MCAT 30607 (Moraxella catarrhalis),Antibacterial Activity Minimum Inhibitory Concentration SPYO 152 (Streptococcus pyogenes),Antibacterial Activity Minimum Inhibitory Concentration EFAE 9217 (Enterococcus faecalis),Antibacterial Activity Minimum Inhibitory Concentration SPNE 9912 (Streptococcus pneumoniae),Antibacterial Activity Minimum Inhibitory Concentration SEPI 30593 [1],Antibacterial Activity Minimum Inhibitory Concentration EFAE 12712 (Enterococcus faecium)
"CCC(=S)NC[C@H]1CN(c2ccc(N3CCS(=N)(=O)CC3)c(F)c2)C(=O)O1 [Example 2, N-({(5S)-3-[3-Fluoro-4-(1-imino-1-oxido-1λ^4,4-thiazinan-4-yl)phenyl]-2-oxo-1,3-oxazolidin-5-yl}methyl)propanethioamide]",1 µg/mL,189 to 190 °C,2 µg/mL,2 µg/mL,0.25 µg/mL,0.5 µg/mL,0.25 µg/mL,0.25 µg/mL,0.5 µg/mL,–,–,–,–,–,–,–,–
"N=S1(=O)CCN(c2ccc(N3C[C@H](CNC(=S)C4CC4)OC3=O)cc2F)CC1 [Example 3, N-({(5S)-3-[3-Fluoro-4-(1-imino-1-oxido-1λ^4,4-thiazinan-4-yl)phenyl]-2-oxo-1,3-oxazolidin-5-yl}methyl)cyclopropanecarbothioamide]",1 µg/mL,209 to 210 °C (dec.),4 µg/mL,1 µg/mL,0.25 µg/mL,1 µg/mL,0.25 µg/mL,0.25 µg/mL,0.5 µg/mL,–,–,–,–,–,–,–,–
"CCC(=S)NCC1CN(c2ccc(C3CC[S+2]([O-])([N-]C(=O)OC)CC3)c(F)c2)C(=O)O1 [Example 19, N-({(5S)-3-[3-Fluoro-4-(1-[(methoxycarbonyl)imino]-1-oxidohexahydro-1λ^4-thiopyran-4-yl)phenyl]-2-oxo-1,3-oxazolidin-5-yl}methyl)propanethioamide, Z-isomer]",1 µg/mL,217 to 218 °C,2 µg/mL,2 µg/mL,0.25 µg/mL,–,0.25 µg/mL,0.5 µg/mL,1 µg/mL,–,–,–,–,–,–,–,–
"CC(=O)NC[C@H]1CN(c2ccc(N3CCS(=N)(=O)CC3)c(F)c2)C(=O)O1 [PREP 1, N-({(5S)-3-[3-Fluoro-4-(1-imino-1-oxido-1λ^4,4-thiazinan-4-yl)phenyl]-2-oxo-1,3-oxazolidin-5-yl}methyl)acetamide]",–,–,–,–,–,–,–,–,–,16 µg/mL,16 µg/mL,8 µg/mL,2 µg/mL,8 µg/mL,1 µg/mL,4 µg/mL,4 µg/mL
"CC(=O)N=S1(=O)CCN(c2ccc(N3C[C@H](CNC(C)=O)OC3=O)cc2F)CC1 [PREP 2, N-({(5S)-3-[3-Fluoro-4-(1-acetylimino-1-oxido-1λ^4,4-thiazinan-4-yl)phenyl]-2-oxo-1,3-oxazolidin-5-yl}methyl)acetamide]",–,–,–,–,–,–,–,–,–,16 µg/mL,32 µg/mL,8 µg/mL,2 µg/mL,2 µg/mL,1 µg/mL,2 µg/mL,4 µg/mL
"CN=S1(=O)CCN(c2ccc(N3C[C@H](CNC(C)=O)OC3=O)cc2F)CC1 [PREP 3, N-({(5S)-3-[3-Fluoro-4-(1-methylimino-1-oxido-1λ^4,4-thiazinan-4-yl)phenyl]-2-oxo-1,3-oxazolidin-5-yl}methyl)acetamide]",–,–,–,–,–,–,–,–,–,16 µg/mL,16 µg/mL,8 µg/mL,2 µg/mL,4 µg/mL,1 µg/mL,2 µg/mL,4 µg/mL
